Results published in US20240024488A1, “COMPOUNDS AND USES THEREOF” (Foghorn Therapeutics Inc., priority 2020, published 2024).

How the values were obtained:
[1] = target: T1, HiBit-BRG1 fusion protein (Homo sapiens, UniProt P51532); experiment: HiBiT-BRG1 cell-based degradation assay (Nano-Glo HiBiT Lytic Detection, 24 h); conditions: HeLa cell line expressing HiBit-BRG1 and LgBit; for Dmax: read-out: BRG1 HiBit Degradation Maximum (%); for DC50: read-out: BRMG1 HiBit Degradation IC50
T1 construct: expressed in transfected cells
Procedure: Procedure: A stable HeLa cell line expressing HiBiT-BRM was generated. On day 0, 5000 cells were seeded in 40 μL of media into each well of 384-well cell culture plates. […] Subsequently plates were incubated for 24 h in a standard tissue culture incubator and equilibrated at room temperature for 15 minutes. Nano-Glo HiBiT Lytic Detection System (Promega N3050) reagent was freshly prepared and 20 ul was added to each well. Upon addition of this LgBit-containing reagent, the HiBiT and LgBiT proteins associate to form the luminescent NanoBiT luciferase. The plates were shaken for 10 minutes at room temperature and the bioluminescence read using an EnVision plate reader (PerkinElmer).
For measurement of BRG1 degradation, a stable HeLa cell line expressing HiBit-BRG1 and LgBit was generated. The same protocol as above was then followed.
(§1) The degradation % was calculated using the following formula: % degradation=100%−100%×(LumSample−LumLC)/(LumHC−LumLC). DMSO treated cells are employed as High Control (HC) and 2 μM of a known BRM/BRG1 degrader standard treated cells are employed as Low Control (LC).

HiBit-BRM fusion protein = target: T2, HiBit-BRM fusion protein (Homo sapiens, UniProt P51531); experiment: HiBiT-BRM cell-based degradation assay (Nano-Glo HiBiT Lytic Detection, 24 h); conditions: HeLa cell line expressing HiBiT-BRM; for DC50: read-out: BRM HiBit Degradation IC50
T2 construct: expressed in transfected cells
Procedure: Procedure: A stable HeLa cell line expressing HiBiT-BRM was generated. On day 0, 5000 cells were seeded in 40 μL of media into each well of 384-well cell culture plates. On day 1, cells were treated with 120 nL DMSO or 120 nL of 3-fold serially DMSO-diluted compounds (10 points in duplicate with 30 μM as final top dose). Subsequently plates were incubated for 24 h in a standard tissue culture incubator and equilibrated at room temperature for 15 minutes. Nano-Glo HiBiT Lytic Detection System (Promega N3050) reagent was freshly prepared and 20 ul was added to each well. Upon addition of this LgBit-containing reagent, the HiBiT and LgBiT proteins associate to form the luminescent NanoBiT luciferase. The plates were shaken for 10 minutes at room temperature and the bioluminescence read using an EnVision plate reader (PerkinElmer).
as §1

T1 sequence (P51532 whole entry, the tested form may be a part): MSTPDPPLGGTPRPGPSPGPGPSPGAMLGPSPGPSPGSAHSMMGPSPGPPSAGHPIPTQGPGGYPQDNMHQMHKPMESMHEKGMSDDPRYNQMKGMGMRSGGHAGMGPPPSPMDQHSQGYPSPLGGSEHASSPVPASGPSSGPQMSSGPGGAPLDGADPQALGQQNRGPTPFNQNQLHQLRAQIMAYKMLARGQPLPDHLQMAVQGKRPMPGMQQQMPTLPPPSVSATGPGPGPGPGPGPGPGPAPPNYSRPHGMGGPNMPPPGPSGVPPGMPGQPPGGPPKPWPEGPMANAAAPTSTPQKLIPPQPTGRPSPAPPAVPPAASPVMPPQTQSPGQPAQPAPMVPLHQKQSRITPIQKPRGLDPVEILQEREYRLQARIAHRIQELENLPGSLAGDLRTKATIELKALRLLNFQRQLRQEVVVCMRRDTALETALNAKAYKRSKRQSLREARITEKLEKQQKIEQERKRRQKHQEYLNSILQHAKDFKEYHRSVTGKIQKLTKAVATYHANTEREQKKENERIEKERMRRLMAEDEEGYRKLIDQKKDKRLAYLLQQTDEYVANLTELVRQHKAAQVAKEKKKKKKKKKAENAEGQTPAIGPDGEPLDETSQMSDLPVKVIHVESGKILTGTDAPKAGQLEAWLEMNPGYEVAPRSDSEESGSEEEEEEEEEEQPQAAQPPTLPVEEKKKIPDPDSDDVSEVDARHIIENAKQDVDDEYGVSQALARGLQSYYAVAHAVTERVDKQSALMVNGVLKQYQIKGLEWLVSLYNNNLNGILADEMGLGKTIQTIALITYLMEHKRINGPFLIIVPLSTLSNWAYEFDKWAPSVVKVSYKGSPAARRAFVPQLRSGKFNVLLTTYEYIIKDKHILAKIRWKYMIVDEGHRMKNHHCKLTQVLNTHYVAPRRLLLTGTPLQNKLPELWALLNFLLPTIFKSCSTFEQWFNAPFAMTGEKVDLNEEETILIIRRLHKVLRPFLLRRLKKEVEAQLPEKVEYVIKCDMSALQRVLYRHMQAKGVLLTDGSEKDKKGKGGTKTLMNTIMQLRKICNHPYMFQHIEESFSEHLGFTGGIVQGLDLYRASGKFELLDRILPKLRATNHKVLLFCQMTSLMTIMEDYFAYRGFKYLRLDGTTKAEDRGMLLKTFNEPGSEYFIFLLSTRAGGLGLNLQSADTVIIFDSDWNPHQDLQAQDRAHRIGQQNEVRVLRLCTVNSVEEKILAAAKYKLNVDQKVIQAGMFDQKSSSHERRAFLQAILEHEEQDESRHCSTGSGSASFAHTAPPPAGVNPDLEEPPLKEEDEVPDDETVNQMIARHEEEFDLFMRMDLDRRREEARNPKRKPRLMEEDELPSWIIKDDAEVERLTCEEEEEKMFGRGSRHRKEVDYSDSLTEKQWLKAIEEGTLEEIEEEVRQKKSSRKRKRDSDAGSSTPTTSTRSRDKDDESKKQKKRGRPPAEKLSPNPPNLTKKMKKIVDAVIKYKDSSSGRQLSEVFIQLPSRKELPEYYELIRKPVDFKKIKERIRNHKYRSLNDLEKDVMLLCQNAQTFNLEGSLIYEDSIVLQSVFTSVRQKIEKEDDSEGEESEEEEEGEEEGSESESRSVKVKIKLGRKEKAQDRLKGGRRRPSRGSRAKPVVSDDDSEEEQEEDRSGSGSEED
T2 sequence (P51531 whole entry, the tested form may be a part): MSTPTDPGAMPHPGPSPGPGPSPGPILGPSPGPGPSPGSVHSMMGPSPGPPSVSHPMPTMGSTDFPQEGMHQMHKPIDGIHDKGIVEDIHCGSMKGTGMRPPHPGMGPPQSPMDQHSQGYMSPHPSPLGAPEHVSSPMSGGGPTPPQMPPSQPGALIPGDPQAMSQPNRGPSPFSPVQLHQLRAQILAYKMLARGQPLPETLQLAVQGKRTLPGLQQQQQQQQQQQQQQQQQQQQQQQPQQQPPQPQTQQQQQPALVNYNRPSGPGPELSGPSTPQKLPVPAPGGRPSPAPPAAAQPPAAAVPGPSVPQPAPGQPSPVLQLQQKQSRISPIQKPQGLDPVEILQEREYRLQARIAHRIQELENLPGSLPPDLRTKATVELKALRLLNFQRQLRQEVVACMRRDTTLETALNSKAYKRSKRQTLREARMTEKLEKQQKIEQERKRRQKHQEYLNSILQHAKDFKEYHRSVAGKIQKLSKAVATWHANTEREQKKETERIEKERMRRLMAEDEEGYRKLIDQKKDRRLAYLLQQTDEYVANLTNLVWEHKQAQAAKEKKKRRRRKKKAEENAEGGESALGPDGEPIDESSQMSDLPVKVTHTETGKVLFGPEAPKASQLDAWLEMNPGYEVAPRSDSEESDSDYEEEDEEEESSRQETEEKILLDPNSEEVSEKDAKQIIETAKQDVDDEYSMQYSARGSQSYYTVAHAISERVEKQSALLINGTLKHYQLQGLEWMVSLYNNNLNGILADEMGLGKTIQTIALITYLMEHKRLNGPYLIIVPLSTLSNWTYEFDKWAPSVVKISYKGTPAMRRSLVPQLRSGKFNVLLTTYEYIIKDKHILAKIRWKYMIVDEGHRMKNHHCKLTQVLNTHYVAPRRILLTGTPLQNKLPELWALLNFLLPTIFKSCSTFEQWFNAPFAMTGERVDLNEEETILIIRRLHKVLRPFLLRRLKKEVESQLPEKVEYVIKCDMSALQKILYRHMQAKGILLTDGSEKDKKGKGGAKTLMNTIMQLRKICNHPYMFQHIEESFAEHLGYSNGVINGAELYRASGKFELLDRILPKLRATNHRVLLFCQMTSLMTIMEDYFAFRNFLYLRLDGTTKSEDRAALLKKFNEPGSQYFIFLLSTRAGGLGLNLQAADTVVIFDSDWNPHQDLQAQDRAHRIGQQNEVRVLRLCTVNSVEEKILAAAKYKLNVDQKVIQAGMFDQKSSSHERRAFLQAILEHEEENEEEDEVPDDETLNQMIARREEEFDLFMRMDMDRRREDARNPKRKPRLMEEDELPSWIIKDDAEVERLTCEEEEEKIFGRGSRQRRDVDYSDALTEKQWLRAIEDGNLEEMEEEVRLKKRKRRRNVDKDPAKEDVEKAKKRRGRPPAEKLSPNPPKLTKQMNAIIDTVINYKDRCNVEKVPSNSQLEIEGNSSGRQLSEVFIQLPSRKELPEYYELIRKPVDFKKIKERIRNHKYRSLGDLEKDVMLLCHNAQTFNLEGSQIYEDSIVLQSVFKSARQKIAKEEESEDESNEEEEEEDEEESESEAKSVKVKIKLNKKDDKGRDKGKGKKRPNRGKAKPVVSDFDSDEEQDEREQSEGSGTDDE

SMILES | Dmax [1] [%] | BRM HiBit Degradation Maximum (%) (HiBit-BRM fusion protein) | DC50 [1] [nM] | DC50 (HiBit-BRM fusion protein) [nM]
Cc1ncsc1-c1ccc(CNC(=O)[C@@H]2C[C@@H](O)CN2C(=O)[C@@H](NC(=O)CNC(=O)[C@@H]2CCc3[nH]c4nnc(-c5ccccc5O)cc4c3C2)C(C)(C)C)cc1 (single isomer, unassigned) [Compound 197] | < 50 | C (“C” indicates maximum degradation < 50%) |  | 
Cc1ncsc1C12CC(CNC(=O)[C@@H]3C[C@@H](O)CN3C(=O)[C@H](c3cc(OCCN4CC(c5cc6cc(-c7ccccc7O)nnc6[nH]5)C4)no3)C(C)C)(C1)C2 (single isomer, unassigned) [Compound 114] | < 50 | C (“C” indicates maximum degradation < 50%) |  | 
Cc1ncsc1-c1ccc([C@H](C)NC(=O)[C@@H]2C[C@@H](O)CN2C(=O)[C@@H](c2cc(OCCN3CCC(F)(c4cc5cc(-c6ccccc6O)nnc5[nH]4)CC3)no2)C(C)C)cc1 (racemic) [Compound 285, (2S,4R)-1-((R)-2-(3-(2-(4-fluoro-4-(3-(2-hydroxyphenyl)-7H-pyrrolo[2,3-c]pyridazin-6-yl)piperidin-1-yl)ethoxy)isoxazol-5-yl)-3-methylbutanoyl)-4-hydroxy-N-((S)-1-(4-(4-methylthiazol-5-yl)phenyl)ethyl)pyrrolidine-2-carboxamide] | > 50 | A (“A” indicates maximum degradation ≥ 75%) | > 100 | > 100
Cc1ncsc1-c1ccc([C@H](C)NC(=O)[C@@H]2C[C@@H](O)CN2C(=O)[C@@H](c2cc(N3C[C@H]4C[C@@H]3CN4C(=O)[C@H]3C[C@@]4(Cc5cc(-c6ccccc6O)nnc5N4)C3)no2)C(C)C)cc1 (racemic) [Compound 79, (2S,4R)-4-hydroxy-1-((R)-2-(3-((1R,4R)-5-((1R,3s)-3′-(2-hydroxyphenyl)-5′,7′-dihydrospiro[cyclobutane-1,6′-pyrrolo[2,3-c]pyridazine]-3-carbonyl)-2,5-diazabicyclo[2.2.1]heptan-2-yl)isoxazol-5-yl)-3-methylbutanoyl)-N-((S)-1-(4-(4-methylthiazol-5-yl)phenyl)ethyl)pyrrolidine-2-carboxamide] | < 50 | C (“C” indicates maximum degradation < 50%) |  | 
Cc1ncsc1-c1ccc([C@H](C)NC(=O)[C@@H]2C[C@@H](O)CN2C(=O)[C@@H](c2cc(OCCCN3C[C@@H]4[C@H](C3)[C@H]4c3cc4cc(-c5ccccc5O)nnc4[nH]3)no2)C(C)C)cc1 (racemic) [Compound 216, (2S,4R)-4-hydroxy-1-((R)-2-(3-(3-((1R,5S,6R)-6-(3-(2-hydroxyphenyl)-7H-pyrrolo[2,3-c]pyridazin-6-yl)-3-azabicyclo[3.1.0]hexan-3-yl)propoxy)isoxazol-5-yl)-3-methylbutanoyl)-N-((S)-1-(4-(4-methylthiazol-5-yl)phenyl)ethyl)pyrrolidine-2-carboxamide] | < 50 | A (“A” indicates maximum degradation ≥ 75%) |  | > 100
Cc1ncsc1-c1ccc([C@H](C)NC(=O)[C@@H]2C[C@@H](O)CN2C(=O)[C@@H](c2cc(OCCN3CCC(c4[nH]c5nnc(-c6ccccc6O)cc5c4C)CC3)no2)C(C)C)cc1 (racemic) [Compound 270, (2S,4R)-4-hydroxy-1-[(2R)-2-[3-(2-{4-[3-(2-hydroxyphenyl)-5-methyl-7H-pyrrolo[2,3-c]pyridazin-6-yl]piperidin-1-yl}ethoxy)-1,2-oxazol-5-yl]-3-methylbutanoyl]-N-[(1S)-1-[4-(4-methyl-1,3-thiazol-5-yl)phenyl]ethyl]pyrrolidine-2-carboxamide] | > 75 | A (“A” indicates maximum degradation ≥ 75%) | > 10 | < 10
Cc1ncsc1-c1ccc([C@H](C)NC(=O)[C@@H]2C[C@@H](O)CN2C(=O)[C@@H](c2cc(OCCN3CCC34CC(c3cc5cc(-c6ccccc6O)nnc5[nH]3)C4)no2)C(C)C)cc1 (mixture of isomers) [Compound 161, (2S,4R)-4-hydroxy-1-((R)-2-(3-(2-(6-(3-(2-hydroxyphenyl)-7H-pyrrolo[2,3-c]pyridazin-6-yl)-1-azaspiro[3.3]heptan-1-yl)ethoxy)isoxazol-5-yl)-3-methylbutanoyl)-N-((S)-1-(4-(4-methylthiazol-5-yl)phenyl)ethyl)pyrrolidine-2-carboxamide] | > 75 | A (“A” indicates maximum degradation ≥ 75%) | > 100 | > 10
Cc1ncsc1-c1ccc(CNC(=O)[C@@H]2C[C@@H](O)CN2C(=O)[C@@H](NC(=O)C(=O)N2CC(c3cc4cc(-c5ccccc5O)nnc4[nH]3)C2)C(C)(C)C)cc1 (racemic) [Compound 306, (2S,4R)-4-hydroxy-1-((S)-2-(2-(3-(3-(2-hydroxyphenyl)-7H-pyrrolo[2,3-c]pyridazin-6-yl)azetidin-1-yl)-2-oxoacetamido)-3,3-dimethylbutanoyl)-N-(4-(4-methylthiazol-5-yl)benzyl)pyrrolidine-2-carboxamide] | < 50 | C (“C” indicates maximum degradation < 50%) |  | 
Cc1ncsc1-c1ccc(C(C)NC(=O)C2CC(O)CN2C(=O)C(c2cc(OCCN3CC4C(C3)C4c3c(C)[nH]c4nnc(-c5ccccc5O)cc34)no2)C(C)C)cc1 [Compound 255, (2S,4R)-4-hydroxy-1-((R)-2-(3-(2-((1R,5S,6S)-6-(3-(2-hydroxyphenyl)-6-methyl-7H-pyrrolo[2,3-c]pyridazin-5-yl)-3-azabicyclo[3.1.0]hexan-3-yl)ethoxy)isoxazol-5-yl)-3-methylbutanoyl)-N-((S)-1-(4-(4-methylthiazol-5-yl)phenyl)ethyl)pyrrolidine-2-carboxamide] | < 50 | A (“A” indicates maximum degradation ≥ 75%) | > 1000 | > 10
Cc1ncsc1-c1ccc([C@H](C)NC(=O)[C@@H]2C[C@@H](O)CN2C(=O)[C@@H](c2cc(N3CCC(C(=O)NC(=N)N4CCc5[nH]c6nnc(-c7ccccc7O)cc6c5C4)CC3)no2)C(C)C)cc1 (racemic) [Compound 74, 1-{5-[(2R)-1-[(2S,4R)-4-hydroxy-2-{[(1S)-1-[4-(4-methyl-1,3-thiazol-5-yl)phenyl]ethyl]carbamoyl}pyrrolidin-1-yl]-3-methyl-1-oxobutan-2-yl]-1,2-oxazol-3-yl}-N-[12-(2-hydroxyphenyl)-4,8,10,11-tetraazatricyclo[7.4.0.0^{2,7}]trideca-1(13),2(7),9,11-tetraene-4-carboximidoyl]piperidine-4-carboxamide] | < 50 | A (“A” indicates maximum degradation ≥ 75%) |  | > 10
Cc1ncsc1-c1ccc([C@H](C)NC(=O)[C@@H]2C[C@@H](O)CN2C(=O)C(c2cc(N3CCC(C(=O)N4CC(c5cc6cc(-c7ccccc7O)nnc6[nH]5)C4)CC3)no2)C(C)C)cc1 (mixture of isomers) [Compound 274, (2S,4R)-4-hydroxy-1-((S)-2-(3-(4-(3-(3-(2-hydroxyphenyl)-7H-pyrrolo[2,3-c]pyridazin-6-yl)azetidine-1-carbonyl)piperidin-1-yl)isoxazol-5-yl)-3-methylbutanoyl)-N-((S)-1-(4-(4-methylthiazol-5-yl)phenyl)ethyl)pyrrolidine-2-carboxamide] | > 75 | A (“A” indicates maximum degradation ≥ 75%) | > 100 | > 10
Cc1ncsc1-c1ccc([C@H](C)NC(=O)[C@@H]2C[C@@H](O)CN2C(=O)[C@@H](c2cc(OCCNCCC(=O)N3CC(c4cc5cc(-c6ccccc6O)nnc5[nH]4)C3)no2)C(C)C)cc1 (racemic) [Compound 65, (2S,4R)-4-hydroxy-1-((R)-2-(3-(2-((3-(3-(3-(2-hydroxyphenyl)-7H-pyrrolo[2,3-c]pyridazin-6-yl)azetidin-1-yl)-3-oxopropyl)amino)ethoxy)isoxazol-5-yl)-3-methylbutanoyl)-N-((S)-1-(4-(4-methylthiazol-5-yl)phenyl)ethyl)pyrrolidine-2-carboxamide] | < 50 | B (“B” indicates maximum degradation ≥ 50%) |  | > 1000
